Source: patent publication US10709725B2, “Gemcitabine ProTide hypoxia-activated prodrug and application thereof” (JIANGSU QIANZHIKANG BIOLOGICAL MEDICINE SCIENCE AND …, priority 2016, dated 2020)
In brackets after ≈: the same amount, converted by molar mass. Entries after “also recorded” stand apart in the source; their conditions may differ. Read-outs that look alike come from different tables or passages of the source.

Tests used:
[1] = tested on: Human lung adenocarcinoma cell A549; assay: In-vitro inhibition of tumor cell proliferation (3H-TdR, 72 h), normal oxygen and hypoxic; assay type: cell-based; settings: A549, 72 h
Protocol: (§1) Take tumor cells in the logarithmic growth phase, add 0.25% pancreatin for digestion for 3 min, use RPMI-1640 containing 10% calf serum for suspension culture of the cells, count the number, adjust cell concentration to 1×10^5 cells/mL, inoculate to a Top-count dedicated 96-well cell culture plate at 100 μL/well, and incubate at 37° C. and 5% CO2 for 24 h; divide the cells into experimental groups and control groups, and add a target compound solution (0.001 μg/mL, 0.01 μg/mL, 0.1 μg/mL, 1 μg/mL, 10 μg/mL) to the experimental groups, wherein each concentration corresponded to four wells, and the volume of each well was made up to 200 μL; after adding samples, continue to culture for 72 h for each group (for hypoxic groups, continue to culture for 72 h at 5% CO2, 95% N2), add ^3H-TdR 3×10^5Bq to each group before culture ended, and measure the CPM (count per minute) value of each well with Top-count; and calculate the median inhibition concentration (IC50) of drugs in each experimental group on cell proliferation.

[2] = tested on: Human liver cancer HepG2 cell; assay: as above; assay type: cell-based; settings: HepG2, 72 h
Protocol: as §1

[3] = tested on: Human pancreatic adenocarcinoma cell BxPC-3 cell; assay: as above; assay type: cell-based; settings: Homo sapiens
[4] = tested on: subcutaneous transplantation tumor of human BxPC-3; assay: Growth inhibition of subcutaneous transplantation tumor of human BxPC-3 in nude mice, with animal weight; assay type: in vivo; settings: high-dose group, 4 times of the effective dose (0.4 mmol/kg); FIG. 3
Protocol: Take BxPC-3 human pancreatic cancer cells in the logarithmic growth phase, inoculate subcutaneously on the back of nude mice at a concentration of 5×10^6 cells·0.2 mL^−1·mouse^−1, three weeks later, after the long diameters of the transplanted tumors in nude mice were all ≥5 mm, calculate the similar volume of tumor bodies based on the long diameter and short diameter of the transplanted tumors. Nude mice were divided into 5 groups by a random block design and allocation method according to the tumor volume.
Administration scheme: 50 model animals were randomly divided into a negative control group, a low-dose group (compound 001, 0.1 mmol/kg), a high-dose group (compound 001, 0.4 mmol/kg), a gemcitabine hydrochloride group (0.2 mmol/kg), and a combined administration group (compound 001, 0.1 mmol/kg+ gemcitabine hydrochloride, 0.1 mmol/kg), intraperitoneally injected (twice per week) for 3 weeks, and killed one week after drug withdrawal. At the same time, animal weight was measured and the eye condition of the animal was observed.

tumor cells = assay: In-vitro inhibition of tumor cell proliferation, hypoxic versus normal oxygen; assay type: cell-based; settings: in words, see Table 1
Protocol: as §1

[5] = hypoxic (5% CO2, 95% N2), read-out: Median inhibition concentration IC50 hypoxic (nitrogen)
[6] = normal oxygen (air), read-out: Median inhibition concentration IC50 normal oxygen (air)
[7] = BXPC-3, 72 h, hypoxic (5% CO2, 95% N2), read-out: Median inhibition concentration IC50 hypoxic (nitrogen)
[8] = BXPC-3, 72 h, normal oxygen (air), read-out: Median inhibition concentration IC50 normal oxygen (air)
[9] = BxPC-3, 72 h, hypoxic (5% CO2, 95% N2), read-out: Median inhibition concentration IC50 hypoxic (nitrogen)
[10] = BxPC-3, 72 h, normal oxygen (air), read-out: Median inhibition concentration IC50 normal oxygen (air)

| SMILES | IC50 [1, 5] | IC50 [1, 6] | IC50 [2, 5] | IC50 [2, 6] | IC50 [3, 7] | IC50 [3, 8] | Animal weight [4] | IC50 [3, 9] | IC50 [3, 10] | Cytotoxicity under a hypoxic condition compared with that under a normal oxygen condition (tumor cells) |
| --- | --- | --- | --- | --- | --- | --- | --- | --- | --- | --- |
| CC(OP(=O)(N[C@@H](C)C(=O)OCC(C)(C)C)OC[C@H]1O[C@@H](n2cnc(N)nc2=O)C(F)(F)C1O)c1ccc([N+](=O)[O-])cc1 (some centres unmarked) [Compound 011] | 0.2 µg/mL (≈ 0.315 µM) | 2 µg/mL (≈ 3.15 µM) |  |  |  |  |  |  |  |  |
| CCOC(=O)[C@H](C)NP(=O)(OC[C@H]1O[C@@H](n2cnc(N)nc2=O)C(F)(F)C1O)OC(C)c1ccc([N+](=O)[O-])cc1 (some centres unmarked) [Compound 008] |  |  | 0.3 µg/mL (≈ 0.506 µM) | > 10 µg/mL | 0.4 µg/mL (≈ 0.675 µM) | > 10 µg/mL |  |  |  |  |
| CC(OC(=O)[C@H](C)NP(=O)(OC[C@H]1O[C@@H](n2ccc(N)nc2=O)C(F)(F)C1O)Oc1ccccc1)c1ccc([N+](=O)[O-])cc1 (some centres unmarked) [Compound 001] | 0.05 µg/mL (≈ 0.0782 µM) | 1 µg/mL (≈ 1.56 µM) | 0.3 µg/mL (≈ 0.469 µM) | > 10 µg/mL |  |  | no significant difference in animal weight; also recorded: not significantly different from that of the low-dose group and a positive control drug gemcitabine group | 0.2 µg/mL (≈ 0.313 µM) | > 10 µg/mL |  |
| C[C@H](NP(=O)(OC[C@H]1O[C@@H](n2ccc(N)nc2=O)C(F)(F)[C@@H]1O)Oc1ccccc1)C(=O)OCc1ccccc1 (some centres unmarked) [NUC-1031, reference compound] | 0.01 µg/mL (≈ 0.0172 µM) | 0.01 µg/mL (≈ 0.0172 µM) | 0.2 µg/mL (≈ 0.345 µM) | 0.2 µg/mL (≈ 0.345 µM) |  |  |  | 0.1 µg/mL (≈ 0.172 µM) | 0.1 µg/mL (≈ 0.172 µM) | no significant difference |
| CC(OC(=O)[C@H](C)NP(=O)(OC[C@H]1O[C@@H](n2ccc(N)nc2=O)C(F)(F)C1O)Oc1ccccc1)c1cnc([N+](=O)[O-])n1C (some centres unmarked) [Compound 003] |  |  | 0.4 µg/mL (≈ 0.622 µM) | > 10 µg/mL |  |  |  |  |  |  |
| Nc1ccn([C@@H]2O[C@H](CO)[C@@H](O)C2(F)F)c(=O)n1 [Gemcitabine] | 0.01 µg/mL (≈ 0.038 µM) | 0.01 µg/mL (≈ 0.038 µM) | 0.2 µg/mL (≈ 0.76 µM) | 0.2 µg/mL (≈ 0.76 µM) |  |  |  | 0.2 µg/mL (≈ 0.76 µM) | 0.2 µg/mL (≈ 0.76 µM) | no significant difference |
| CC(OC(=O)[C@H](C)NP(=O)(OCc1ccc(N(C)C)cc1)OC[C@H]1O[C@@H](n2ccc(N)nc2=O)C(F)(F)C1O)c1ccc([N+](=O)[O-])cc1 (some centres unmarked) [Compound 020] |  |  |  |  | 0.4 µg/mL (≈ 0.574 µM) | > 10 µg/mL |  |  |  |  |
| CC(C)OC(=O)[C@H](C)NP(=O)(OC[C@H]1O[C@@H](n2cnc(N)nc2=O)C(F)(F)C1O)OC(C)c1ccc([N+](=O)[O-])cc1 (some centres unmarked) [Compound 009] | 0.2 µg/mL (≈ 0.33 µM) | 2 µg/mL (≈ 3.3 µM) |  |  | 0.4 µg/mL (≈ 0.66 µM) | > 10 µg/mL |  |  |  |  |
| COc1ccccc1COP(=O)(N[C@@H](C)C(=O)OC(C)c1cnc([N+](=O)[O-])n1C)OC[C@H]1O[C@@H](n2ccc(N)nc2=O)C(F)(F)C1O (some centres unmarked) [Compound 021] |  |  |  |  | 0.5 µg/mL (≈ 0.727 µM) | > 10 µg/mL |  |  |  |  |
| CC(OC(=O)[C@H](C)NP(=O)(OC[C@H]1O[C@@H](n2cnc(N)nc2=O)C(F)(F)C1O)Oc1ccccc1)c1ccc([N+](=O)[O-])o1 (some centres unmarked) [Compound 004] |  |  |  |  |  |  |  | 0.4 µg/mL (≈ 0.634 µM) | > 10 µg/mL |  |
| CC(C)OC(=O)[C@H](C)NP(=O)(OCc1ccc([N+](=O)[O-])s1)OC[C@H]1O[C@@H](n2cnc(N)nc2=O)C(F)(F)C1O (some centres unmarked) [Compound 016] |  |  |  |  | 0.4 µg/mL (≈ 0.668 µM) | > 10 µg/mL |  |  |  |  |
| C[C@H](NP(=O)(OC[C@H]1O[C@@H](n2ccc(N)nc2=O)C(F)(F)C1O)Oc1ccccc1)C(=O)OCc1ccc([N+](=O)[O-])cc1 (some centres unmarked) [Compound 023] | 0.01 µg/mL (≈ 0.016 µM) | 0.01 µg/mL (≈ 0.016 µM) | 0.3 µg/mL (≈ 0.48 µM) | 0.4 µg/mL (≈ 0.64 µM) |  |  |  | 0.1 µg/mL (≈ 0.16 µM) | 0.1 µg/mL (≈ 0.16 µM) | not significantly different |
| C[C@H](NP(=O)(OCc1ccc([N+](=O)[O-])o1)OC[C@H]1O[C@@H](n2ccc(N)nc2=O)C(F)(F)C1O)C(=O)OCc1ccccc1 (some centres unmarked) [Compound 015] |  |  |  |  | 0.5 µg/mL (≈ 0.794 µM) | > 10 µg/mL |  |  |  |  |
